Reference: patent US12617762B2, “Carboxy derivatives with antiinflamatory properties” (Sitryx Therapeutics Limited, priority 2019, dated 2026)
Where a name gives a salt, the structure may show the parent alone. Read-outs that look alike come from different tables or passages of the source.

How the values were obtained:
[1] = Hepatocyte stability assay, mouse; format: in vitro ADME; conditions: mouse, hepatocytes; for hepatocyte CLint at 10 μM: Hepatocyte stability Clint; for half-life at 10 μM: Hepatocyte stability T½
In short: (§1)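 Metabolic stability was measured as depletion of 10 μM compound in thawed hepatocytes (0.5×10^6 cells/mL, 37° C, up to 60 min). Intrinsic clearance came from the slope of log-transformed percentage remaining.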

[2] = test system: NRF2 (nuclear factor erythroid 2-related factor 2); experiment: NRF2 +/-GSH activation assay (DiscoverX PathHunter NRF2 translocation kit, U2OS cells); format: cell-based; conditions: for NRF2 activation +GSH Emax / NRF2 activation −GSH Emax / −GSH Emax: normalised to DMF high control
In short: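 Activation is expressed as percent of plate DMF (high) versus no-DMF (low) controls, from luminescence after 6 h compound exposure at 37 °C of U2OS PathHunter cells. The +GSH condition used compound pre-incubated 30 min in 6 mM working GSH; −GSH cells received compound directly.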

[3] = test system: IL-1β cytokine output from THP-1s; experiment: THP-1 AlphaLISA IL-1β cytokine inhibition assay; format: cell-based; conditions: for IC50: Homo sapiens; for IL-1β lowering, result in words: THP-1 IL-1β assay
In short: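 IL-1β release by AlphaLISA, expressed as % inhibition against +/− LPS controls on each plate. Differentiation: PMA, 72 h. Sequence: 30 min compound pre-treatment, LPS 24 h, Nigericin 1 h before supernatant harvest, all at 37° C./5% CO2.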

[4] = test system: IL-6 cytokine output from THP-1s; experiment: THP-1 AlphaLISA IL-6 cytokine inhibition assay; format: cell-based; conditions: Homo sapiens, LPS then nigericin
In short: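 THP-1 cells differentiated with PMA for 72 h, then pre-incubated with compound 30 min, stimulated with LPS 24 h, then Nigericin 1 h, all at 37° C. Supernatant IL-6 measured by AlphaLISA. Percentage inhibition normalized to +/− LPS plate controls.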

[5] = Hepatocyte stability assay, human; format: in vitro ADME; conditions: human, hepatocytes; for hepatocyte CLint at 10 μM: Hepatocyte stability Clint; for half-life at 10 μM: Hepatocyte stability T½
In short: as §1

[6] = +GSH, 30 minute compound-GSH pre-incubation, read-out: NRF2 activation +GSH EC50
[7] = −GSH, Table 5 exo vs endo comparison, read-out: −GSH EC50
[8] = −GSH, U2OS PathHunter cells, 6 hours compound treatment, read-out: NRF2 activation −GSH EC50
[9] = −GSH, Table 5 exo vs endo comparison
[10] = THP-1, Table 3, head to head comparison of exo vs endo double bond compounds
[11] = THP-1, differentiated THP-1 cells, LPS then nigericin
[12] = THP-1, differentiated THP-1 cells

SMILES | hepatocyte CLint at 10 μM [1] [µL/min/1e6 cells] | half-life at 10 μM [1] [min] | EC50 [2, 6] [µM] | NRF2 activation +GSH Emax ([2]; +GSH) [%] | NRF2 activation, result in words ([2]; −GSH and/or +GSH) | EC50 [2, 7] [µM] | EC50 [2, 8] [µM] | NRF2 activation −GSH Emax ([2]; −GSH) [%] | −GSH Emax [2, 9] [%] | IC50 [3, 10] [µM] | IC50 [3, 11] [µM] | IC50 ([4]; differentiated THP-1 cells) [µM] | hepatocyte CLint at 10 μM [5] [µL/min/1e6 cells] | half-life at 10 μM [5] [min] | IC50 [4, 12] [µM] | IL-1β lowering, result in words [3]
C/C(=C\c1nc(C2(c3ccc(Br)cc3)CC2)no1)C(=O)O [Example 168] | 393 | 5 | > 100 | 16 | more potent in NRF2 (-GSH) than Example 50 | 1.4 | 1.4 | 69 | 69 | 33.6 | 33.6 | 51.2 | 69 | 18 |  | 
C=C(Cc1nc(C2(c3ccc(Br)cc3)CC2)no1)C(=O)O [Example 50, 2-((3-(1-(4-bromophenyl)cyclopropyl)-1,2,4-oxadiazol-5-yl)methyl)acrylic acid] | 146 | 9 | 39.2 | 88 |  | 35.9 | 35.9 | 150 | 150 | 4.5 | 4.5 |  | 25 | 53 | 20.3 | 
C=C(Cc1nc(CCCCCCCCC)no1)C(=O)O [Example 53, 2-((3-nonyl-1,2,4-oxadiazol-5-yl)methyl)acrylic acid] | > 460 | < 3 | 1.8 | 71 |  |  | 1.8 | 178 |  |  | 1.8 |  | 329 | 4 | 2.6 | 
C=C(Cc1nc(Cc2ccc(CCC)cc2)no1)C(=O)O [Example 70, 2-((3-(4-propylbenzyl)-1,2,4-oxadiazol-5-yl)methyl)acrylic acid] | 58 | 26 | 15.6 | 147 |  |  | 13.4 | 188 |  |  | 25.3 |  | 13 | 117 | 9.4 | 
C=C(Cc1noc(C2(c3ccc(Br)cc3)CC2)n1)C(=O)O [Example 89, 2-((5-(1-(4-bromophenyl)cyclopropyl)-1,2,4-oxadiazol-3-yl)methyl)acrylic acid] | 336 | 5 | 42.2 | 63 |  |  | 30.7 | 99 |  |  | 12.2 | 33.4 | 38 | 41 |  | 
C=C(Cc1nc(C(C)CCCCCC)no1)C(=O)O (centres unmarked) [Example 8, 2-((3-(octan-2-yl)-1,2,4-oxadiazol-5-yl)methyl)acrylic acid] | 143 | 10 | 28.1 | 167 |  |  | 20.9 | 175 |  |  | 16.8 |  | 28 | 51 | 14 | 
C=C(Cc1cc(CCCCCCCC)on1)C(=O)O [Example 102, 2-((5-octylisoxazol-3-yl)methyl)acrylic acid] | > 460 | < 3 | 9.5 | 230 |  |  | 7.2 | 342 |  |  | 7.4 | 5.2 | > 460 | < 3 |  | 
C=C(Cc1nc(C(C)CCCCCC(F)(F)F)no1)C(=O)O (centres unmarked) [Example 54, 2-((3-(8,8,8-trifluorooctan-2-yl)-1,2,4-oxadiazol-5-yl)methyl)acrylic acid] | 13 | 102 | 42.4 | 50 |  |  | 44.6 | 115 |  |  | > 100 |  | 5 | 268 | 19.1 | not effective
C=C(Cc1nc(CCCCCCC(F)(F)C(F)(F)F)no1)C(=O)O [Example 17, 2-((3-(7,7,8,8,8-pentafluorooctyl)-1,2,4-oxadiazol-5-yl)methyl)acrylic acid] | 105 | 12 | 8.7 | 140 |  |  | 5.1 | 179 |  |  | 19.3 |  | 42 | 34 | 5.3 | 
C=C(Cc1nc(C2(c3ccc(S(F)(F)(F)(F)F)cc3)CC2)no1)C(=O)O [Example 77, 2-((3-(1-(4-(pentafluoro-λ^6-sulfaneyl)phenyl)cyclopropyl)-1,2,4-oxadiazol-5-yl)methyl)acrylic acid] | 10 | 189 | 52.7 | 69 |  | 48.1 | 48.1 | 210 | 210 | 7.6 | 7.6 |  | < 3 | > 460 | 14.6 | 
C=C(Cc1noc(C(F)(F)CCCCCCC)n1)C(=O)O [Example 83, 2-((5-(1,1-difluorooctyl)-1,2,4-oxadiazol-3-yl)methyl)acrylic acid] | > 460 | < 3 | 3.8 | 161 |  |  | 3 | 185 |  |  | 3.1 |  | 263 | 5 | 3.4 | 
C=C(Cc1nc(Cc2ccc(OCCCC)cc2)no1)C(=O)O [Example 51, 2-((3-(4-butoxybenzyl)-1,2,4-oxadiazol-5-yl)methyl)acrylic acid] | 278 | 5 | 6.7 | 181 |  |  | 4.6 | 269 |  |  | 53.4 |  | 24 | 55 | 5.3 | 
C=C(Cc1nc(C2(c3ccc(F)cc3)CC2)no1)C(=O)O [Example 44, 2-((3-(1-(4-fluorophenyl)cyclopropyl)-1,2,4-oxadiazol-5-yl)methyl)acrylic acid] | 37 | 44 | > 100 | 23 |  |  | 28.7 | 65 |  |  | > 100 |  | 10 | 144 | 29.9 | not effective
C=C(Cc1nc(C(F)(F)CCCCCCC)no1)C(=O)O [Example 88, 2-((3-(1,1-difluorooctyl)-1,2,4-oxadiazol-5-yl)methyl)acrylic acid] | > 460 | < 3 | 3 | 205 |  |  | 2.8 | 237 |  |  | 3.1 |  | 134 | 12 | 2.8 | 
C=C(Cc1nc(-c2ccc(OCCCC)cc2)no1)C(=O)O [Example 61, 2-((3-(4-butoxyphenyl)-1,2,4-oxadiazol-5-yl)methyl)acrylic acid] | 301 | 4 | 4.9 | 124 |  | 3.2 | 3.2 | 198 | 198 | 13.9 | 13.9 |  | 52 | 29 | 3.1 | 
C=C(Cc1nc(-c2ccc(C3(CCC)CC3)cc2)no1)C(=O)O [Example 72, 2-((3-(4-(1-propylcyclopropyl)phenyl)-1,2,4-oxadiazol-5-yl)methyl)acrylic acid] | 28 | 43 | 19.5 | 151 |  |  | 14.6 | 189 |  |  | 7 |  | 69 | 27 | 4.4 | 
C=C(Cc1cc(CCCCCCCC)ccn1)C(=O)O [Example 104, 2-((4-octylpyridin-2-yl)methyl)acrylic acid trifluoroacetic acid salt] | > 460 | < 3 | 8.2 | 216 |  |  | 7.5 | 293 |  |  | 11.6 |  | 370 | 3 | 2.1 | 
